This is an account of results in patent US12723063B2, “GIPR-agonist compounds” (Eli Lilly and Company, priority 2019, dated 2026).

*1 amine or outer side, *2 acyl side, *3 side chain or, on linkers, in order; H or OH if unused. Where a SMILES comes first, the peptide text is derived from it. Side-chain parts run from the residue outwards. [ ]: non-standard residue; d: D form. The star is where a group is joined. C20 diacid = O=C(O)CCCCCCCCCCCCCCCCCCC(=O)*; αMePhe(2-F) = C[C@](N)(Cc1ccccc1F)C(=O)O; γGlu = O=C(O)[C@H](CCC(=O)[*:2])N[*:1]; αMeF = C[C@](N)(Cc1ccccc1)C(=O)O; 4Pal = N[C@@H](Cc1ccncc1)C(=O)O; αMeL = CC(C)C[C@](C)(N)C(=O)O; AEEA = NCCOCCOCC(=O)O; Aib = CC(C)(N)C(=O)O Bounds are passed on as bounds.

In the experiment the target is T1, human GLP-1R (Homo sapiens, UniProt P43220).
T1 construct: expressed in transfected cells; crude membranes
T1 sequence (P43220 24-463): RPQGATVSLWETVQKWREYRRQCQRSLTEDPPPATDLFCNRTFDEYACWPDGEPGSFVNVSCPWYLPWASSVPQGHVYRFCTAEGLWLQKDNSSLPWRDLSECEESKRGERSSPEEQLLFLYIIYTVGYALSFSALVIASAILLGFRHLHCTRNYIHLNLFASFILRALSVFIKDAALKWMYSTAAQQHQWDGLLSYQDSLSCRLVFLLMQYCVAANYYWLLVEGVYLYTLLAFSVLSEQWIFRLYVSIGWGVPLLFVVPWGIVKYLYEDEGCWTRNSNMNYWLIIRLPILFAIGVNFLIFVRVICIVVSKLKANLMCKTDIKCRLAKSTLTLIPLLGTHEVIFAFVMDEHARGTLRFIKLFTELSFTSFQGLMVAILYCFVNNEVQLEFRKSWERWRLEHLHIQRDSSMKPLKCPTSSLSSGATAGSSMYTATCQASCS
Briefly: [125I]-GLP-1 binding, SPA with WGA beads, 0.1% bacitracin. To be noted: geometric mean, read-out: hGLP1R Ki. The procedure, abridged: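 Binding buffer was 25 mM HEPES pH 7.4 with 2.5 mM CaCl2, 1 mM MgCl2, 0.1% (w/v) bacitracin, 0.003% Tween-20 and EDTA-free protease inhibitors. Four-parameter regression gave IC50, converted to Ki (geometric mean, SEM, n independent days).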
For `CC[C@H](C)[C@H](NC(=O)[C@H](CO)NC(=O)[C@H](Cc1ccc(O)cc1)NC(=O)[C@H](CC(=O)O)NC(=O)[C@H](CO)NC(=O)[C@@H](NC(=O)[C@](C)(Cc1ccccc1F)NC(=O)[C@@H](NC(=O)CNC(=O)[C@H](CCC(=O)O)NC(=O)C(C)(C)NC(=O)[C@@H](N)Cc1ccc(O)cc1)[C@@H](C)O)[C@@H](C)CC)C(=O)N[C@@H](C)C(=O)N[C@@H](CC(C)C)C(=O)N[C@@H](CC(=O)O)C(=O)N[C@@H](CCCCN)C(=O)N[C@H](C(=O)N[C@@H](Cc1c[nH]cn1)C(=O)N[C@@H](CCC(N)=O)C(=O)NC(C)(C)C(=O)N[C@@H](CCC(=O)O)C(=O)N[C@@H](Cc1ccccc1)C(=O)N[C@H](C(=O)N[C@@H](CC(N)=O)C(=O)N[C@@H](Cc1ccc(O)cc1)C(=O)N[C@@H](CCCCNC(=O)COCCOCCNC(=O)COCCOCCNC(=O)CC[C@H](NC(=O)CCCCCCCCCCCCCCCCCCC(=O)O)C(=O)O)C(=O)N[C@@H](CC(C)C)C(=O)N[C@@H](CCC(=O)O)C(=O)NCC(=O)NCC(=O)N1CCC[C@H]1C(=O)N[C@@H](CO)C(=O)N[C@@H](CO)C(=O)NCC(=O)N[C@@H](C)C(=O)N1CCC[C@H]1C(=O)N1CCC[C@H]1C(=O)N1CCC[C@H]1C(=O)N[C@@H](CO)C(N)=O)C(C)C)[C@@H](C)CC` [Example 95] (H-Y[Aib]EGT[αMePhe(2-F)]ISDYSIALDKIHQ[Aib]EFVNYK([AEEA-AEEA-γGlu-C20 diacid])LEGGPSSGAPPPS-NH2), the Ki amounted to 832 nM.

`CC[C@H](C)[C@H](NC(=O)[C@H](CO)NC(=O)[C@H](Cc1ccc(O)cc1)NC(=O)[C@H](CC(=O)O)NC(=O)[C@H](CO)NC(=O)[C@@H](NC(=O)[C@H](Cc1ccccc1)NC(=O)[C@@H](NC(=O)CNC(=O)[C@H](CCC(=O)O)NC(=O)C(C)(C)NC(=O)[C@@H](N)Cc1ccc(O)cc1)[C@@H](C)O)[C@@H](C)CC)C(=O)N[C@@H](C)C(=O)N[C@@H](CC(C)C)C(=O)N[C@@H](CC(=O)O)C(=O)N[C@@H](CCCCN)C(=O)N[C@H](C(=O)N[C@@H](Cc1c[nH]cn1)C(=O)N[C@@H](CCC(N)=O)C(=O)NC(C)(C)C(=O)N[C@@H](CCC(=O)O)C(=O)N[C@@H](Cc1ccccc1)C(=O)N[C@H](C(=O)N[C@@H](CC(N)=O)C(=O)N[C@@H](Cc1ccc(O)cc1)C(=O)N[C@@H](CCCCNC(=O)COCCOCCNC(=O)COCCOCCNC(=O)CC[C@H](NC(=O)CCCCCCCCCCCCCCCCCCC(=O)O)C(=O)O)C(=O)N[C@@H](CC(C)C)C(=O)N[C@@H](C)C(=O)NCC(=O)NCC(=O)N1CCC[C@H]1C(=O)N[C@@H](CO)C(=O)N[C@@H](CO)C(=O)NCC(=O)N[C@@H](C)C(=O)N1CCC[C@H]1C(=O)N1CCC[C@H]1C(=O)N1CCC[C@H]1C(=O)N[C@@H](CO)C(N)=O)C(C)C)[C@@H](C)CC` [Example 96] (H-Y[Aib]EGTFISDYSIALDKIHQ[Aib]EFVNYK([AEEA-AEEA-γGlu-C20 diacid])LAGGPSSGAPPPS-NH2): the Ki is above 908 nM.

Turning to `CC[C@H](C)[C@H](NC(=O)[C@H](CO)NC(=O)[C@H](Cc1ccc(O)cc1)NC(=O)[C@H](CC(=O)O)NC(=O)[C@H](CO)NC(=O)[C@@H](NC(=O)[C@](C)(Cc1ccccc1)NC(=O)[C@@H](NC(=O)CNC(=O)[C@H](CCC(=O)O)NC(=O)C(C)(C)NC(=O)[C@@H](N)Cc1ccc(O)cc1)[C@@H](C)O)[C@@H](C)CC)C(=O)N[C@@H](C)C(=O)N[C@@H](CC(C)C)C(=O)N[C@@H](CC(=O)O)C(=O)N[C@@H](CCCCN)C(=O)N[C@H](C(=O)N[C@@H](Cc1c[nH]cn1)C(=O)N[C@@H](CCC(N)=O)C(=O)NC(C)(C)C(=O)N[C@@H](CCC(=O)O)C(=O)N[C@@H](Cc1ccccc1)C(=O)N[C@H](C(=O)N[C@@H](CC(N)=O)C(=O)N[C@@H](Cc1ccc(O)cc1)C(=O)N[C@@H](CCCCNC(=O)COCCOCCNC(=O)COCCOCCNC(=O)CC[C@H](NC(=O)CCCCCCCCCCCCCCCCCCC(=O)O)C(=O)O)C(=O)N[C@@H](CC(C)C)C(=O)N[C@@H](C)C(=O)NCC(=O)NCC(=O)N1CCC[C@H]1C(=O)N[C@@H](CO)C(=O)N[C@@H](CO)C(=O)NCC(=O)N[C@@H](C)C(=O)N1CCC[C@H]1C(=O)N1CCC[C@H]1C(=O)N1CCC[C@H]1C(=O)N[C@@H](CO)C(N)=O)C(C)C)[C@@H](C)CC` [Example 97] (H-Y[Aib]EGT[αMeF]ISDYSIALDKIHQ[Aib]EFVNYK([AEEA-AEEA-γGlu-C20 diacid])LAGGPSSGAPPPS-NH2), the Ki stood at 570 nM.

Regarding `CC[C@H](C)[C@H](NC(=O)[C@H](CO)NC(=O)[C@H](Cc1ccc(O)cc1)NC(=O)[C@H](CC(=O)O)NC(=O)[C@H](CO)NC(=O)[C@@H](NC(=O)[C@](C)(Cc1ccccc1F)NC(=O)[C@@H](NC(=O)CNC(=O)[C@H](CCC(=O)O)NC(=O)C(C)(C)NC(=O)[C@@H](N)Cc1ccc(O)cc1)[C@@H](C)O)[C@@H](C)CC)C(=O)N[C@@H](C)C(=O)N[C@@H](CC(C)C)C(=O)N[C@@H](CC(=O)O)C(=O)N[C@@H](CCCCN)C(=O)N[C@H](C(=O)N[C@@H](Cc1c[nH]cn1)C(=O)N[C@@H](CCC(N)=O)C(=O)NC(C)(C)C(=O)N[C@@H](CCC(=O)O)C(=O)N[C@@H](Cc1ccccc1)C(=O)N[C@H](C(=O)N[C@@H](CC(N)=O)C(=O)N[C@@H](Cc1ccc(O)cc1)C(=O)N[C@@H](CCCCNC(=O)COCCOCCNC(=O)COCCOCCNC(=O)CC[C@H](NC(=O)CCCCCCCCCCCCCCCCCCC(=O)O)C(=O)O)C(=O)N[C@@H](CC(C)C)C(=O)N[C@@H](C)C(=O)NCC(=O)NCC(=O)N1CCC[C@H]1C(=O)N[C@@H](CO)C(=O)N[C@@H](CO)C(=O)NCC(=O)N[C@@H](C)C(=O)N1CCC[C@H]1C(=O)N1CCC[C@H]1C(=O)N1CCC[C@H]1C(=O)N[C@@H](CO)C(N)=O)C(C)C)[C@@H](C)CC` [Example 98] (H-Y[Aib]EGT[αMePhe(2-F)]ISDYSIALDKIHQ[Aib]EFVNYK([AEEA-AEEA-γGlu-C20 diacid])LAGGPSSGAPPPS-NH2), the Ki worked out at 311 nM.

As for `CC[C@H](C)[C@H](NC(=O)[C@H](CO)NC(=O)[C@H](Cc1ccc(O)cc1)NC(=O)[C@H](CC(=O)O)NC(=O)[C@H](CO)NC(=O)[C@@H](NC(=O)[C@](C)(Cc1ccccc1F)NC(=O)[C@@H](NC(=O)CNC(=O)[C@H](CCC(=O)O)NC(=O)C(C)(C)NC(=O)[C@@H](N)Cc1ccc(O)cc1)[C@@H](C)O)[C@@H](C)CC)C(=O)N[C@@H](C)C(=O)N[C@@H](CC(C)C)C(=O)N[C@@H](CC(=O)O)C(=O)N[C@@H](CCCCN)C(=O)N[C@H](C(=O)N[C@@H](Cc1c[nH]cn1)C(=O)N[C@@H](CCC(N)=O)C(=O)NC(C)(C)C(=O)N[C@@H](CC(=O)O)C(=O)N[C@@H](Cc1ccccc1)C(=O)N[C@H](C(=O)N[C@@H](CCC(=O)O)C(=O)N[C@@H](Cc1ccc(O)cc1)C(=O)N[C@@H](CCCCNC(=O)COCCOCCNC(=O)COCCOCCNC(=O)CC[C@H](NC(=O)CCCCCCCCCCCCCCCCCCC(=O)O)C(=O)O)C(=O)N[C@@H](CC(C)C)C(=O)N[C@@H](CCC(=O)O)C(=O)NCC(=O)NCC(=O)N1CCC[C@H]1C(=O)N[C@@H](CO)C(=O)N[C@@H](CO)C(=O)NCC(=O)N[C@@H](C)C(=O)N1CCC[C@H]1C(=O)N1CCC[C@H]1C(=O)N1CCC[C@H]1C(=O)N[C@@H](CO)C(N)=O)C(C)C)[C@@H](C)CC` [Example 99] (H-Y[Aib]EGT[αMePhe(2-F)]ISDYSIALDKIHQ[Aib]DFVEYK([AEEA-AEEA-γGlu-C20 diacid])LEGGPSSGAPPPS-NH2), the Ki is above 901 nM.

As to `CC[C@H](C)[C@H](NC(=O)[C@H](CCCCN)NC(=O)[C@H](CC(=O)O)NC(=O)[C@H](CC(C)C)NC(=O)[C@](C)(CC(C)C)NC(=O)[C@@H](NC(=O)[C@H](CO)NC(=O)[C@H](Cc1ccc(O)cc1)NC(=O)[C@H](CC(=O)O)NC(=O)[C@H](CO)NC(=O)[C@@H](NC(=O)[C@H](Cc1ccccc1)NC(=O)[C@@H](NC(=O)CNC(=O)[C@H](CCC(=O)O)NC(=O)C(C)(C)NC(=O)[C@@H](N)Cc1ccc(O)cc1)[C@@H](C)O)[C@@H](C)CC)[C@@H](C)CC)C(=O)N[C@@H](Cc1c[nH]cn1)C(=O)N[C@@H](CCC(N)=O)C(=O)NC(C)(C)C(=O)N[C@@H](CCC(=O)O)C(=O)N[C@@H](Cc1ccccc1)C(=O)N[C@H](C(=O)N[C@@H](CCC(=O)O)C(=O)N[C@@H](Cc1ccncc1)C(=O)N[C@@H](CCCCNC(=O)COCCOCCNC(=O)COCCOCCNC(=O)CC[C@H](NC(=O)CCCCCCCCCCCCCCCCCCC(=O)O)C(=O)O)C(=O)N[C@@H](CC(C)C)C(=O)N[C@@H](CCC(=O)O)C(=O)NCC(=O)NCC(=O)N1CCC[C@H]1C(=O)N[C@@H](CO)C(=O)N[C@@H](CO)C(=O)NCC(=O)N[C@@H](C)C(=O)N1CCC[C@H]1C(=O)N1CCC[C@H]1C(=O)N1CCC[C@H]1C(=O)N[C@@H](CO)C(N)=O)C(C)C` [Example 100] (H-Y[Aib]EGTFISDYSI[αMeL]LDKIHQ[Aib]EFVE[4Pal]K([AEEA-AEEA-γGlu-C20 diacid])LEGGPSSGAPPPS-NH2), the Ki is above 913 nM.

As to `CC[C@H](C)[C@H](NC(=O)[C@H](CCCN)NC(=O)[C@H](CC(=O)O)NC(=O)[C@H](CC(C)C)NC(=O)[C@](C)(CC(C)C)NC(=O)[C@@H](NC(=O)[C@H](CO)NC(=O)[C@H](Cc1ccc(O)cc1)NC(=O)[C@H](CC(=O)O)NC(=O)[C@H](CO)NC(=O)[C@@H](NC(=O)[C@H](Cc1ccccc1)NC(=O)[C@@H](NC(=O)CNC(=O)[C@H](CCC(=O)O)NC(=O)C(C)(C)NC(=O)[C@@H](N)Cc1ccc(O)cc1)[C@@H](C)O)[C@@H](C)CC)[C@@H](C)CC)C(=O)N[C@@H](Cc1c[nH]cn1)C(=O)N[C@@H](CCC(N)=O)C(=O)NC(C)(C)C(=O)N[C@@H](CC(=O)O)C(=O)N[C@@H](Cc1ccccc1)C(=O)N[C@H](C(=O)N[C@H](CCC(=O)O)C(=O)N[C@@H](Cc1ccc(O)cc1)C(=O)N[C@@H](CCCCNC(=O)COCCOCCNC(=O)COCCOCCNC(=O)CC[C@H](NC(=O)CCCCCCCCCCCCCCCCCCC(=O)O)C(=O)O)C(=O)N[C@@H](CC(C)C)C(=O)N[C@@H](CCC(=O)O)C(=O)NCC(=O)NCC(=O)N1CCC[C@H]1C(=O)N[C@@H](CO)C(=O)N[C@@H](CO)C(=O)NCC(=O)N[C@@H](C)C(=O)N1CCC[C@H]1C(=O)N1CCC[C@H]1C(=O)N1CCC[C@H]1C(=O)N[C@@H](CO)C(N)=O)C(C)C` [Example 101], the Ki was above 913 nM.

One may read the Ki as the dissociation constant of the complex between target and ligand, obtained from inhibition or displacement.
